Earlier results as cited in article PMC4855509 (Photochemistry and photobiology, 2014).

## carboxy-tetramethylrhodamine [TMR]
  triplet state quantum yield: 0.001–0.003
